Experimental data from US11692028B2, “Map kinase pathway targets for the treatment of Marfan syndrome” (The Johns Hopkins University, priority 2017, dated 2023).

Assays:
[1] = system: TGFβ signal transduction (p-SMAD2); settings: measured by p-SMAD2 western blot analysis; cited from earlier work
[2] = system: 129 MFS mice (Fbn1C1039G/+ on 129S6/SvEvTac background); assay: Aortic root growth by echocardiography in drug-treated 129 MFS mice; format: in vivo, mouse; settings: for aortic root growth: FIG. 2B
Description: Losartan was dissolved in drinking water and filtered to reach a concentration of 0.6 g/L, giving an estimated daily dose of 60 mg/kg/day, as described previously (Habashi, J. P. et al. Science 312, 117-21 (2006)). Mice were started on losartan at 2 months of age and continued for 8 months. Placebo-treated animals received regular drinking water. RDEA119 was reconstituted in 10% 2-hydroxypropyl-beta-cyclodextrin (Sigma-Aldrich, Mo., USA) dissolved in PBS, and administered twice daily by oral gavage at a dose of 25 mg/kg, as described previously (Holm, T. M. et al. Science 15, 358-61 (2011)). Treatment was initiated at 2 months of age and continued for 2 months. 10% 2-hydroxypropyl-beta-cyclodextrin dissolved in PBS was administered as a control. Erlotinib was reconstituted in 1% methylcellulose (Sigma-Aldrich) dissolved in PBS, and administered daily by oral gavage at a dose of 50 mg/kg. Treatment was initiated at 2 months of age and continued for 2 months. 1% methylcellulose dissolved in PBS was administered as a control.
Mouse echocardiography: Nair hair removal cream was used on all mice the day prior to echocardiography. All echocardiograms were performed on awake, unsedated mice using the VisualSonics Vevo 2100 imaging system and a 30 MHz transducer (Fujifilm VisualSonics, ON, Canada). The aorta was imaged using a parasternal, long-axis view. Three separate measurements of the maximal internal dimension at the sinus of Valsalva and proximal ascending aorta were made from distinct captured images and averaged. All imaging and measurements were performed blinded to genotype and treatment arm.

[3] = system: pSmad2, pErk1/2, pp38, pEgfr; assay: Western blot analysis of the aortic root of treated 129 MFS mice; format: in vivo, mouse; settings: for signaling cascade activation in aortic root (Western blot): treated 129 MFS mice at 4 months of age, FIG. 2E, 3G
Description: Losartan was dissolved in drinking water and filtered to reach a concentration of 0.6 g/L, giving an estimated daily dose of 60 mg/kg/day, as described previously (Habashi, J. P. et al. Science 312, 117-21 (2006)). Mice were started on losartan at 2 months of age and continued for 8 months. Placebo-treated animals received regular drinking water. RDEA119 was reconstituted in 10% 2-hydroxypropyl-beta-cyclodextrin (Sigma-Aldrich, Mo., USA) dissolved in PBS, and administered twice daily by oral gavage at a dose of 25 mg/kg, as described previously (Holm, T. M. et al. Science 15, 358-61 (2011)). Treatment was initiated at 2 months of age and continued for 2 months. 10% 2-hydroxypropyl-beta-cyclodextrin dissolved in PBS was administered as a control. Erlotinib was reconstituted in 1% methylcellulose (Sigma-Aldrich) dissolved in PBS, and administered daily by oral gavage at a dose of 50 mg/kg. Treatment was initiated at 2 months of age and continued for 2 months. 1% methylcellulose dissolved in PBS was administered as a control. Mice that were sacrificed for Western Blot analysis had their proximal ascending aortas immediately dissected, flash frozen in liquid nitrogen and stored at -80° C. until further processing. Protein was extracted using the reagents and protocol from a Total Protein Extraction Kit containing protease inhibitor and Protein Phosphatase Inhibitor Cocktail (Millipore, Mass., USA). Aortas were homogenized using a pellet pestle motor (Kimble-Kontes, N.J., USA) as per the extraction kit protocol. Samples were then stored once more at -80° C. until Western blot analysis was performed. […] PBS-T). Equal protein loading of samples was determined by a protein assay (Bio-Rad, Calif., USA) and confirmed by probing with an antibody against β-Actin (Sigma-Aldrich #A5316). […] Blots were then washed in PBS-T, developed using SuperSignal West Femto HRP substrate (Pierce Scientific, Ill., USA), exposed to BioMax Scientific Imaging Film (Sigma), and quantified using ImageJ analysis software (NIH, Md., USA).

[4] = system: TGFβ induction in vascular tissues; settings: literature; cited from earlier work
[5] = system: 129 MFS mice (Fbn1C1039G/+ on 129S6/SvEvTac background); assay: Survival / premature lethality from aortic dissection in 129 MFS mice; format: in vivo, mouse; settings: losartan, up to 8 months of treatment, FIG. 2C
Description: Mice were cared for under compliance with the Animal Care and Use Committee of the Johns Hopkins University School of Medicine. Fbn1^C1039G/+ mice on a pure C57BL/6J background were already onsite. Mice on a pure 129S6/SvEvTac background were obtained from Taconic Biosciences (Rensselaer County, N.Y., USA). The Fbn1^C1039G/+ mice on a pure C57BL/6J background were bred into a pure 129S6/SvEvTac background and backcrossed for >10 generations. Mice haploinsufficient or knockout for Mmp17 (B6.129P2-Mmp17^rm1Dg^en/J; #005824), Map2k6 (B6.129S1-Map2k6^tm1Flv/J; #008382) and Map3k4 (B6.129S6-Map3k4^tm1Flv/J; #008375) were obtained from the Jackson Laboratory (Bar Harbor, Me., USA), and bred to Fbn1C1039G/+ mice. Animals were checked daily for death and all mice found dead were immediately autopsied to assess for evidence of aortic dissection. Mice that were sacrificed were done so using a lethal dose of ketamine and acepromazine (1 ml of 10 mg/ml acepromazine in 10 mls of 100 mg/ml ketamine; MWI Vet, ID, USA). At the time of sacrifice, mice underwent immediate laparotomy and descending abdominal aortic transection. Phosphate buffered saline (PBS) was infused through the right and left ventricles to flush out the blood. […]

[6] = system: Fbn1C1039G/+ mice (MFS mice); settings: cited from earlier work; for aortic disease in MFS mice: literature (Habashi 2006; Holm 2011; Habashi 2011; Doyle 2015)
patients with MFS = settings: literature (Lacro et al., NEJM 371, 2061); cited from earlier work
[7] = oral gavage from 2 to 4 months of age (RDEA119 25 mg/kg twice daily; erlotinib 50 mg/kg daily), 3F

SMILES	aortic root growth [2, 7]	signaling cascade activation in aortic root (Western blot) [3]	all aortic parameters (aortic root size, post-natal aortic root growth, premature lethality from dissection) [2]	aortic disease in MFS mice [6]	further results
Fc1ccc(Cl)cc1-c1nc(Nc2ccncc2)c2nccnc2n1 [SD-208]					TGFβ signal transduction [1]: inhibits TGFβ signal transduction in a dose-dependent fashion
C#Cc1cccc(Nc2ncnc3cc(OCCOC)c(OCCOC)cc23)c1 [erlotinib]	abrogated aortic root growth	reduced activation of Egfr, Erk1/2, and p38			Ang-II infusion-mediated TGFβ induction in vascular tissues [4]: can abrogate Ang-II infusion-mediated TGFβ induction in vascular tissues
CCCCc1nc(Cl)c(CO)n1Cc1ccc(-c2ccccc2-c2nn[nH]n2)cc1 [losartan]			fully rescued	can suppress aortic disease in MFS mice	aortic root growth ([2]; losartan 0.6 g/L in drinking water (est. 60 mg/kg/day), growth from 2 to 6 months): reduced aortic root growth to a rate equal to that of WT animals; premature lethality (survival) [5]: ameliorated premature lethality; TGFβ signaling cascades in aortic root (Western blot) ([3]; losartan-treated 129 MFS mice at 10 months of age, FIG. 2D): reduction in both canonical (Smad2) and noncanonical (Erk1/2, p38) TGFβ signaling cascades; multiple phenotypic manifestations (aortic aneurysm, developmental emphysema, mitral valve disease, skeletal muscle myopathy) ([6]; Fbn1C1039G/+ mice, in association with blunted Smad2/3 activation, literature): can be attenuated; aortic root growth in patients with MFS (patients with MFS): some degree of rescue of aortic root growth
COc1cc(F)c(F)c(Nc2ccc(I)cc2F)c1NS(=O)(=O)C1(C[C@H](O)CO)CC1 [RDEA119]	reduced aortic root growth to a rate equal to that of WT animals	selective reduction in noncanonical (Erk1/2, p38) cascades	fully rescued	can suppress aortic disease in MFS mice	
